The values that follow come from ChEMBL document CHEMBL5678807, “A selective jumonji H3K27 demethylase inhibitor modulates the proinflammatory macrophage response” (Nature, 2012).

Series [1] has as its target Histone deacetylase 2 (Homo sapiens, UniProt Q92769). The series can be described thus: Inhibition of human HDAC2 by FLINT assay.
Series [2] has as its target Histone deacetylase 3 (Homo sapiens, UniProt O15379). The series can be described thus: Inhibition of human HDAC3 by FLINT assay.
For series [3], the target named is Histone deacetylase 4 (Homo sapiens, UniProt P56524). The series can be described thus: Inhibition of human HDAC4 by FLINT assay.
Series [4] deals with Amine oxidase [flavin-containing] A (Homo sapiens, UniProt P21397). In words: Inhibition of human MAOA by FLINT assay.
Sequence of Amine oxidase [flavin-containing] A (P21397 whole entry): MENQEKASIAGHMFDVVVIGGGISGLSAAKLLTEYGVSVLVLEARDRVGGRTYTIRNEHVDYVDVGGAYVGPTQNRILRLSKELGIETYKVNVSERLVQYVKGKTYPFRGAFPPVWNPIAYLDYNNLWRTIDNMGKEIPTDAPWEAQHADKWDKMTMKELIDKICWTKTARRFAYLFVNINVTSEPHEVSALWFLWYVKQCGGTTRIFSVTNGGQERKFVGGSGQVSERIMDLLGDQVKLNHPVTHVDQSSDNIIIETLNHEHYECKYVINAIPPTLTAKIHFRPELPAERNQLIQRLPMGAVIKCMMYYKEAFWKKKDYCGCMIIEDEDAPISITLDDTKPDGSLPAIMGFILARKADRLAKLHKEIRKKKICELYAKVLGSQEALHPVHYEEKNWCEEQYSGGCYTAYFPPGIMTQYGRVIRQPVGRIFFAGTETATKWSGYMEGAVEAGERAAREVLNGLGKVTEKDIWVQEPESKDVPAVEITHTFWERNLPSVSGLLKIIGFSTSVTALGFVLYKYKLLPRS
Series [5] has as its target 5-hydroxytryptamine receptor 2A (Homo sapiens, UniProt P28223). The series can be described thus: Antagonist activity at human 5-HT2A by intracellular Ca luminescence assay. In kind it is functional, cell-based.
Series [6] has as its target 5-hydroxytryptamine receptor 1B (Homo sapiens, UniProt P28222). In words: Agonist activity at human 5-HT1B by SPA. Type of series: functional.
Series [7] addresses Alpha-2C adrenergic receptor (Homo sapiens, UniProt P18825). The series can be described thus: Agonist activity at human alpha 2C adrenoceptor by TR-FRET assay. Background: TR-FRET usually uses a lanthanide donor and a delayed reading to cut background.
Series [8] deals with T1, Beta-2 adrenergic receptor (Homo sapiens, UniProt P07550). The series can be described thus: Agonist activity at human beta2 adrenoceptor by TR-FRET assay. Type of series: functional.
T1 sequence (P07550 whole entry): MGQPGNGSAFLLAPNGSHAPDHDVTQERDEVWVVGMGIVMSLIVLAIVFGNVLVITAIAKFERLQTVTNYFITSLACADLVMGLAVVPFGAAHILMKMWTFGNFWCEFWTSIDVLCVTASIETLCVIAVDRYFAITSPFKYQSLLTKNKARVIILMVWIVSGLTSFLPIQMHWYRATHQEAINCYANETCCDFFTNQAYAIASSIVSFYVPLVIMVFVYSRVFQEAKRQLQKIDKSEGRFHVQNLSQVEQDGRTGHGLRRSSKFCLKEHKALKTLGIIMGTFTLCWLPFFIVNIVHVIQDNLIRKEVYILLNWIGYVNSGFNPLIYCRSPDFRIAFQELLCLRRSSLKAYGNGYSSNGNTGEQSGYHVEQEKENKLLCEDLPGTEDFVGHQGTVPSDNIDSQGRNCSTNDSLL
Series [9] addresses T1, Beta-2 adrenergic receptor. In words: Antagonist activity at human beta2 adrenoceptor by TR-FRET assay. In kind it is functional.
The target of series [10] is D(2) dopamine receptor (Homo sapiens, UniProt P14416). In words: Agonist activity at human dopamine 2 by SPA. In kind it is functional.
The target in series [11] is T2, Muscarinic acetylcholine receptor M2 (Homo sapiens, UniProt P08172).
T2 sequence (P08172 whole entry): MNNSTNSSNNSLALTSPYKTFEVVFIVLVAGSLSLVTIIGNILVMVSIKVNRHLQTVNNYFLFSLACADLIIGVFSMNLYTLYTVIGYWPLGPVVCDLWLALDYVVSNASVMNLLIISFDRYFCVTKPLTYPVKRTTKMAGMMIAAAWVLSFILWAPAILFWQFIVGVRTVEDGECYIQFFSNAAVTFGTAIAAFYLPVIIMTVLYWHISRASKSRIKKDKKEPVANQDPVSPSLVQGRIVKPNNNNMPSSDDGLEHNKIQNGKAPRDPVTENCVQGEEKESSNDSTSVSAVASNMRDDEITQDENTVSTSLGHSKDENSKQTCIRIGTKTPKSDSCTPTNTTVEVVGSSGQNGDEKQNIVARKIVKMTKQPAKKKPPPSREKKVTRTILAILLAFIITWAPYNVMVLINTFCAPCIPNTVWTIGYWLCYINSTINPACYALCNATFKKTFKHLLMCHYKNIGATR
The series can be described thus: Agonist activity at human CHRM2 by intracellular Ca fluorescence assay. Type of series: functional, cell-based.

Series [12] concerns the target Kappa-type opioid receptor (Homo sapiens, UniProt P41145). The series can be described thus: Antagonist activity at human OPRK-1 by SPA. In kind it is functional.
For series [13], the target named is Vasopressin V1a receptor (Homo sapiens, UniProt P37288). In words: Antagonist activity at human vasopressin V1a by intracellular Ca luminescence assay. In kind it is functional, cell-based.
The target in series [14] is Acetylcholine receptor subunit alpha (Homo sapiens, UniProt P02708). The series can be described thus: Agonist activity at human alpha 1 nAChR by intracellular Ca fluorescence assay. Type of series: cell-based.
The target in series [15] is hERG (KCNH2) (Homo sapiens, UniProt Q12809). In words: Binding affinity to human ERG by FP binding assay. Type of series: toxicity.
Sequence of hERG (KCNH2) (Q12809 whole entry): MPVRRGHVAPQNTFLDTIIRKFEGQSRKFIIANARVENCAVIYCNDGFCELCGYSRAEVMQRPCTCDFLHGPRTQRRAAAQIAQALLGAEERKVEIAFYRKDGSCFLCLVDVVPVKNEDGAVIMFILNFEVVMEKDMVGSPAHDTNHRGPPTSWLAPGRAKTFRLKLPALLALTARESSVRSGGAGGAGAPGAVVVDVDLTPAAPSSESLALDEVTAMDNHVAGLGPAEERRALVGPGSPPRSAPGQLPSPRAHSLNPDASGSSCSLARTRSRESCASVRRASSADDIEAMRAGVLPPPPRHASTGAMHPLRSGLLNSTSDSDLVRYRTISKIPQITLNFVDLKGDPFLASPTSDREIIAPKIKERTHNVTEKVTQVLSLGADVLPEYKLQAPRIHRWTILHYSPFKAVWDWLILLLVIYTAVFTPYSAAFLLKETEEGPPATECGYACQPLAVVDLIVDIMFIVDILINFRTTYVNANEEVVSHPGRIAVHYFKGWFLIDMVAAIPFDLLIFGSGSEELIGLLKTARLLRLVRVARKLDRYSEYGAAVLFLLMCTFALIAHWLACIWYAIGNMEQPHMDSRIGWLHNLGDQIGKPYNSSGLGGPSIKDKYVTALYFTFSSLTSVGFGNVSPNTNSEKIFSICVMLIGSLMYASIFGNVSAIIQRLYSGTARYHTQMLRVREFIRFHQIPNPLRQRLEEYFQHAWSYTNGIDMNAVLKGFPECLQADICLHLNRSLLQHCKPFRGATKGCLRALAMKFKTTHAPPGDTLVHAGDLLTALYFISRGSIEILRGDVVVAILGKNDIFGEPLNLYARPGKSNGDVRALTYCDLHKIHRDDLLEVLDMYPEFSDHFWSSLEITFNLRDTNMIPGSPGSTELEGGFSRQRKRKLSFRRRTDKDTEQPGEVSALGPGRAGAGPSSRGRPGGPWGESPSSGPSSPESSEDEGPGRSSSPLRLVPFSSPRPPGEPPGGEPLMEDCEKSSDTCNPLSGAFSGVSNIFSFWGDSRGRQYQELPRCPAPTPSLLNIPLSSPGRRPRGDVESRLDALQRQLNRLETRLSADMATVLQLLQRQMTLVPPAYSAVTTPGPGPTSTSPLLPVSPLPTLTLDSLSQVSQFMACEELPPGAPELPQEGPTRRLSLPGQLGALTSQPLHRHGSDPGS
In series [16] the target is Voltage-gated potassium channel, IKs; KCNQ1(Kv7.1)/KCNE1(MinK) (Homo sapiens, UniProt P51787+P15382). The series can be described thus: Blockade of human KCNQ1/KCNE1 by electrophysiology assay. In kind it is protein-complex assay.
Series [17] concerns the target Sodium channel protein type 5 subunit alpha (Homo sapiens, UniProt Q14524). In words: Blockade of human NaV1.5 by electrophysiology assay.
Series [18] is described as follows: Antagonist activity at human NR1A/NR2B by intracellular Ca fluorescence assay. In kind it is cell-based.
Series [19] concerns the target Aryl hydrocarbon receptor (Homo sapiens, UniProt P35869). The series can be described thus: Agonist activity at human AhR by TR-FRET assay.
Series [20] deals with Sodium-dependent serotonin transporter (Homo sapiens, UniProt P31645). In words: Binding affinity to human SERT by SPA.
Series [21] has as its system Macrophage. In words: Antiinflammatory activity in human primary macrophages assessed as effect on LPS-induced BMP2 gene expression at 30 uM measured after 2 hrs by RT-PCR array (reference value: 331 a.u.). Type of series: functional.
Series [22] deals with Macrophage. In words: Antiinflammatory activity in human primary macrophages assessed as effect on LPS-induced FASLG gene expression at 30 uM measured after 2 hrs by RT-PCR array (reference value: 73 a.u.). Type of series: functional.
Series [23] has as its system Macrophage. The series can be described thus: Antiinflammatory activity in human primary macrophages assessed as effect on LPS-induced FIGF gene expression at 30 uM measured after 2 hrs by RT-PCR array (reference value: 60 a.u.). Type of series: functional.
Series [24] relates to Macrophage. In words: Antiinflammatory activity in human primary macrophages assessed as effect on LPS-induced IFNA1 gene expression at 30 uM measured after 2 hrs by RT-PCR array (reference value: 462 a.u.). In kind it is functional.
Series [25] concerns Macrophage. The series can be described thus: Antiinflammatory activity in human primary macrophages assessed as effect on LPS-induced IFNA8 gene expression at 30 uM measured after 2 hrs by RT-PCR array (reference value: 425 a.u.). In kind it is functional.
Series [26] has as its system Macrophage. The series can be described thus: Antiinflammatory activity in human primary macrophages assessed as effect on LPS-induced IL17C gene expression at 30 uM measured after 2 hrs by RT-PCR array (reference value: 157 a.u.). Type of series: functional.
Series [27] relates to Macrophage. The series can be described thus: Antiinflammatory activity in human primary macrophages assessed as effect on LPS-induced IL19 gene expression at 30 uM measured after 2 hrs by RT-PCR array (reference value: 13781 a.u.). In kind it is functional.
Series [28] deals with Macrophage. The series can be described thus: Antiinflammatory activity in human primary macrophages assessed as effect on LPS-induced IL1F7 gene expression at 30 uM measured after 2 hrs by RT-PCR array (reference value: 192 a.u.). In kind it is functional.
Series [29] relates to Macrophage. The series can be described thus: Antiinflammatory activity in human primary macrophages assessed as effect on LPS-induced IL1F8 gene expression at 30 uM measured after 2 hrs by RT-PCR array (reference value: 1429 a.u.). Type of series: functional.
In series [30] the test system is Macrophage. The series can be described thus: Antiinflammatory activity in human primary macrophages assessed as effect on LPS-induced LTB gene expression at 30 uM measured after 2 hrs by RT-PCR array (reference value: 6025 a.u.). Type of series: functional.
In series [31] the test system is Macrophage. The series can be described thus: Antiinflammatory activity in human primary macrophages assessed as effect on LPS-induced TGFB2 gene expression at 30 uM measured after 2 hrs by RT-PCR array (reference value: 7625 a.u.). Type of series: functional.
The subject of series [32] is Macrophage. In words: Antiinflammatory activity in human primary macrophages assessed as effect on LPS-induced TNFSF11 gene expression at 30 uM measured after 2 hrs by RT-PCR array (reference value: 32 a.u.). In kind it is functional.
For series [33], the system named is Macrophage. In words: Antiinflammatory activity in human primary macrophages assessed as effect on LPS-induced TNFSF14 gene expression at 30 uM measured after 2 hrs by RT-PCR array (reference value: 5963 a.u.). Type of series: functional.

Sequence of Histone deacetylase 2 (Q92769 whole entry): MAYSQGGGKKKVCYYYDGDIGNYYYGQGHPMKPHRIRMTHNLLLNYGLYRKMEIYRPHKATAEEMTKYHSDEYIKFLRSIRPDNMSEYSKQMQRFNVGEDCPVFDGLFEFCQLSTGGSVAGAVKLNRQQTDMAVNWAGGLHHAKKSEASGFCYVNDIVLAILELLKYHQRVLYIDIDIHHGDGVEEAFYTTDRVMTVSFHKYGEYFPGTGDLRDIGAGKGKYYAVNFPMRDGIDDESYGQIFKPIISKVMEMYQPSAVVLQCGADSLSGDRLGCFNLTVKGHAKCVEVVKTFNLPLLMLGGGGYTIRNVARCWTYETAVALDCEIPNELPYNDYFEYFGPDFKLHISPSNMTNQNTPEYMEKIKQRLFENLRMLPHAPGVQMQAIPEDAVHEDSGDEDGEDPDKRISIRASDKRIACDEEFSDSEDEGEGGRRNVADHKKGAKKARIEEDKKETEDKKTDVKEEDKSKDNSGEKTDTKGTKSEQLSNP
Sequence of Alpha-2C adrenergic receptor (P18825 whole entry): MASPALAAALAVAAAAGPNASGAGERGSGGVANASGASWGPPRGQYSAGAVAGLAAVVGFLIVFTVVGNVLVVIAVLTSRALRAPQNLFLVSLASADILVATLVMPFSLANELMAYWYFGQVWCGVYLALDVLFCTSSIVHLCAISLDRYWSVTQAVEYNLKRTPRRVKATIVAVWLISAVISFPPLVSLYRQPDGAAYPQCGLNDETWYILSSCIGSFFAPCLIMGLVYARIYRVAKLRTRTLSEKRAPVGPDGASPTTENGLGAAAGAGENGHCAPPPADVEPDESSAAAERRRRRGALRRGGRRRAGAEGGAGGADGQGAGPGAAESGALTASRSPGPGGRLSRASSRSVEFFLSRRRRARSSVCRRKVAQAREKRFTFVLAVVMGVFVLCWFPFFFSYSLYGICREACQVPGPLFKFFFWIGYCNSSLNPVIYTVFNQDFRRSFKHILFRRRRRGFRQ
Sequence of Sodium channel protein type 5 subunit alpha (Q14524 whole entry): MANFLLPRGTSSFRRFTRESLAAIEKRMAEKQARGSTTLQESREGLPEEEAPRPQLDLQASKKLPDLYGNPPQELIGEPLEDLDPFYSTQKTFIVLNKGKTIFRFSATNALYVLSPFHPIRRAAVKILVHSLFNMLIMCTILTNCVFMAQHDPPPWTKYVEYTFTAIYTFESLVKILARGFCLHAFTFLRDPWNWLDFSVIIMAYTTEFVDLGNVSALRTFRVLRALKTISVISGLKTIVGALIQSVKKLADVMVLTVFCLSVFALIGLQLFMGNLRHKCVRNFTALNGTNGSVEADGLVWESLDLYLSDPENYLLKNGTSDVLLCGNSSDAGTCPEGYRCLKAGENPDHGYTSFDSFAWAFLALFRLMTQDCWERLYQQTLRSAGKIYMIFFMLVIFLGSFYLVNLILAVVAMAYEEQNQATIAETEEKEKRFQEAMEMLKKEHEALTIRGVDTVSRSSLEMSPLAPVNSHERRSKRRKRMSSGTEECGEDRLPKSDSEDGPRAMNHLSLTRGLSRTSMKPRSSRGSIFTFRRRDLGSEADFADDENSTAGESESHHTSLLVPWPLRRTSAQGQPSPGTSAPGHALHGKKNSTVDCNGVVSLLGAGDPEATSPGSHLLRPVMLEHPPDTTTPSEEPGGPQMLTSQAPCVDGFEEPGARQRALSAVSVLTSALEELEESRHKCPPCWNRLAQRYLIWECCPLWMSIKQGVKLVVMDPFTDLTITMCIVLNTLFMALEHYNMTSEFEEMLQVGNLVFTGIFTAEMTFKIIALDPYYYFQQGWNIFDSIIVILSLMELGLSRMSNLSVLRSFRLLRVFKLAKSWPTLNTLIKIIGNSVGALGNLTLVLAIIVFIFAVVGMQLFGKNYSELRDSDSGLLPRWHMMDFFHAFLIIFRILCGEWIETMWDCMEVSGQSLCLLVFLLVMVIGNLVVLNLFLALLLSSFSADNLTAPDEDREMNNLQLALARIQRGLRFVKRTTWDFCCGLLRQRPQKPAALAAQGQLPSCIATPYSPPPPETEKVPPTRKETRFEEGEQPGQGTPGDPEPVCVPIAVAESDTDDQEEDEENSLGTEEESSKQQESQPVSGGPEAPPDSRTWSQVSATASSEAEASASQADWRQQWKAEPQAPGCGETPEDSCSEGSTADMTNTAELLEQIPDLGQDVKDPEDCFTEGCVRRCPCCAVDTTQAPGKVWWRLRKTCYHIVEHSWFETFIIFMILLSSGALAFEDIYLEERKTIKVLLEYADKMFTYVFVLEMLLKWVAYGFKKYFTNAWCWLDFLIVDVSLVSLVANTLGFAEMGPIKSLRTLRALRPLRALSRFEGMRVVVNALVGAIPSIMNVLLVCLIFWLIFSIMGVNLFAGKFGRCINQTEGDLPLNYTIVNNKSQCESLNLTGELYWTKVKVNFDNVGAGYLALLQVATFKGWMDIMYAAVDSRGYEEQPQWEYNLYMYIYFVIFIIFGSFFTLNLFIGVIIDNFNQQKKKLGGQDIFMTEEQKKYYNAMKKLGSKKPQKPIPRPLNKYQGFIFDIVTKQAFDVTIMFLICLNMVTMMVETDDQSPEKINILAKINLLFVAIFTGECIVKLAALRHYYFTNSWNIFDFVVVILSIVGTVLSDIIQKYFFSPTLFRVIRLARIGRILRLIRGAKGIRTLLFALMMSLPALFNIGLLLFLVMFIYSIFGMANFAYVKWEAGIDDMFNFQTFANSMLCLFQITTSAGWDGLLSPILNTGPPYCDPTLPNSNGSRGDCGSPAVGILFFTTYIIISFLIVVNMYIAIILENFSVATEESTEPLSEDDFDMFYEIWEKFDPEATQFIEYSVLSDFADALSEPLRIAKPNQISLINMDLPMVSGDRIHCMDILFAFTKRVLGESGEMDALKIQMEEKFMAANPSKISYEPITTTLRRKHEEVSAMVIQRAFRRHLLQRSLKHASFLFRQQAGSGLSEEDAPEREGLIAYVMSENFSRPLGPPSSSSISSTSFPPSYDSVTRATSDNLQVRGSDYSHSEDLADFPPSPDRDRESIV

Consider `O=C(O)CCNc1cc(N2CCc3ccccc3CC2)nc(-c2ccccn2)n1`, for which the XC50 in series [1] was more than 300 µM; in series [2], more than 300 µM; in series [3], more than 300 µM; in series [4], 50 µM; in [5], more than 40 µM; in series [6], more than 32 µM. For the same compound, the XC50 in series [7] is more than 32 µM; in series [8], more than 32 µM; in series [9], more than 32 µM; in [10] it was more than 100 µM; in [11] it was more than 16 µM; in [12], 50 µM. The XC50 in [13] was more than 50 µM; in [14] it was more than 50 µM; in series [15], 32 µM; in [16] it was more than 25 µM; in series [17] it was 79 µM; in series [18], more than 50 µM. The XC50 is more than 100000 nM in series [19] and more than 100 µM in series [20].

Regarding `CCOC(=O)CCNc1cc(N2CCc3ccccc3CC2)nc(-c2cccnc2)n1`, the Activity is given as 347 a.u in series [21]; 45 a.u in series [22]; 87 a.u in series [23]; 835 a.u in series [24]; 431 a.u in [25]; 253 a.u in series [26]. For the same compound, the Activity turned out to be 1914 a.u in series [27]; 33 a.u in series [28]; 2282 a.u in series [29]; 5856 a.u in [30]; 4816 a.u in series [31]; 27 a.u in series [32]. In addition, the Activity in [33] was 5331 a.u.

Consider `CCOC(=O)CCNc1cc(N2CCc3ccccc3CC2)nc(-c2ccccn2)n1`, for which the Activity in [21] came out at 3 a.u; in series [22], 19 a.u; in series [23], 19 a.u; in series [24] it was 285 a.u; in series [25], 1012 a.u; in series [26], 107 a.u. The Activity came to 1216 a.u in series [27]; 360 a.u in [28]; 1157 a.u in series [29]; 5493 a.u in [30]; 3422 a.u in series [31]; 255 a.u in [32]. For the same compound, the Activity in [33] was 9678 a.u.

On to `O=C(O)CCNc1cc(N2CCc3ccccc3CC2)nc(-c2cccnc2)n1`, for which the XC50 was more than 300 µM in [1]; more than 300 µM in [2]; more than 300 µM in [3]; more than 100 µM in series [4]; more than 40 µM in [5]; more than 32 µM in series [6]. Besides, the XC50 in series [7] is more than 32 µM; in [8], more than 32 µM; in series [9], more than 32 µM; in series [10], more than 100 µM; in series [11], more than 16 µM; in series [12], 50 µM. The XC50 in series [13] is 4.9 µM; in series [14], more than 50 µM; in series [15], more than 100 µM; in series [16], more than 25 µM; in [17], 50 µM; in [18], more than 50 µM. Further, the XC50 was 320 nM in [19] and more than 100 µM in [20].
